Assay results reported in patent US6350585B1, “Reagent for assay of amylase isozyme activity” (priority 1998, dated 2002).

Tests used:
[1] = molecular target: T1, S-type amylase (Calibzyme S) (Homo sapiens, UniProt P0DUB6); assay: amylase isozyme activity assay with sodium azide as activator, S-type amylase sample; format: biochemical; settings: for Change in absorbance, Containing Antibody (Composition C) / Change in absorbance, Without antibody (Composition D) / Relative sensitivity / Percent residual enzyme activity: S-type amylase; for Relative sensitivity: G3CNP at 300 mM = 100; for Percent residual enzyme activity: composition C/D
T1 construct: purchased International Reagents Corporation Calibzyme S
T1 sequence (P0DUB6 16-511): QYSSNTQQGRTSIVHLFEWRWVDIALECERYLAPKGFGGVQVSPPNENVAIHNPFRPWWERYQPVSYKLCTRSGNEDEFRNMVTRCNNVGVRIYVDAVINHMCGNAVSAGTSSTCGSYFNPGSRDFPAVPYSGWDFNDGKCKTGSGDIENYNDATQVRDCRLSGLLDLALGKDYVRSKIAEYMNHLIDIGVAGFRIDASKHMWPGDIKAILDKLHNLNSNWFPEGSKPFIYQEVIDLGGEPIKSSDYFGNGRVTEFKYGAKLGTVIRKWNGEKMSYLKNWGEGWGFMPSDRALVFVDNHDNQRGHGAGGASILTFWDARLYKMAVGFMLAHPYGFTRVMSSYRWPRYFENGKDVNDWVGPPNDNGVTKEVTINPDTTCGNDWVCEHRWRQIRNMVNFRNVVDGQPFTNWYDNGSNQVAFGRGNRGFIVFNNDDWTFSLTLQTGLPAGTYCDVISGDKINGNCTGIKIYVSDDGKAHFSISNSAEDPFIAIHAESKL
Description: S-type amylase inhibitory antibody 88E8 (manufactured by Roche Diagnostics K.K.) 20 mg/L
S-type amylase inhibitory antibody 66C7 (manufactured by Roche Diagnostics K.K.) 5 mg/L
(§1) Substrate (GalG2CNP (Example) or G3CNP (Comparative Example)) 2.6 mM
(§2) (3) S-type Amylase (Calibzyme S, Manufactured by International Reagents Corporation)
Each of the above-mentioned samples (0.05 mL) was added to respective reagent C and D (3 mL) and the mixtures were left standing at 37° C. for 3 minutes. Then, change in absorbance at 405 nm was assayed and change in absorbance per minute was calculated.
In the Tables, P is the case where P-type amylase was used as the sample, and S is the case where S-type amylase was used. The relative sensitivity of P and S is based on the change in absorbance of G3CNP as 100, wherein sodium azide was 300 mM.
Percent residual enzyme activity and relative sensitivity were calculated by the following formulas.
Percent residual enzyme activity (%)=(change in absorbance of composition C)/(change in absorbance of composition D)×100
Relative sensitivity (%)=(change in absorbance of composition D)/(change in absorbance of Comparative Example wherein sodium azide was 300 mM)×100

[2] = molecular target: T1, S-type amylase (Calibzyme S); assay: amylase isozyme activity assay with potassium thiocyanate as activator, S-type amylase sample; format: biochemical; settings: for Relative sensitivity: G3CNP at 900 mM = 100; for Percent residual enzyme activity: composition A/B
Description: A reagent for amylase isozyme activity assay comprising each composition as mentioned below was prepared. In the Table showing the composition, GalG2CNP (Example) is 2-chloro-4-nitrophenyl 4-O-β-D-galactopyranosylmaltoside, and G3CNP (Comparative Example) is 2-chloro-4-nitrophenylmaltotrioside.
S-type amylase-inhibiting antibody 88E8 (manufactured by Roche Diagnostics K.K.) 20 mg/L
S-type amylase-inhibiting antibody 66C7 (manufactured by Roche Diagnostics K.K.) 5 mg/L
as §1, §2
Each sample (0.05 mL was added to the reagent A (3 mL) and the reagent B (3 mL), respectively, and the mixtures were allowed to stand at 37° C. for 3 minutes. Then, the change in absorbance at 405 nm was assayed, and the change in absorbance per minute was calculated. The results are shown in Tables 1 and 2.
In the Tables, P is the case where P-type amylase was used as the sample, and S is the case where S-type amylase was used.
Percent residual enzyme activity (%)=(change in absorbance of composition A)/(change in absorbance of composition B)×100
Relative sensitivity (%)=(change in absorbance of composition B)/(change in absorbance of Comparative Example wherein potassium thiocyanate was 900 mM)×100

## O=[N+]([O-])c1ccc(O[C@H]2O[C@H](CO)[C@@H](O[C@H]3O[C@H](CO)[C@@H](O[C@H]4O[C@H](CO)[C@@H](O)[C@H](O)[C@H]4O)[C@H](O)[C@H]3O)[C@H](O)[C@H]2O)c(Cl)c1 [Example G3CNP, 2-chloro-4-nitrophenylmaltotrioside, reference compound]
[1]; sodium azide 0 mM
  Change in absorbance, Containing Antibody (Composition C): 0.3 mABS/min
  Change in absorbance, Without antibody (Composition D): 4.7 mABS/min
  Relative sensitivity: 10.2%
  Percent residual enzyme activity: 6.4%
[1]; sodium azide 30 mM
  Change in absorbance, Containing Antibody (Composition C): 0.9 mABS/min
  Change in absorbance, Without antibody (Composition D): 15.7 mABS/min
  Relative sensitivity: 34.2%
  Percent residual enzyme activity: 5.7%
[1]; sodium azide 60 mM
  Change in absorbance, Containing Antibody (Composition C): 1.0 mABS/min
  Change in absorbance, Without antibody (Composition D): 22.4 mABS/min
  Relative sensitivity: 48.8%
  Percent residual enzyme activity: 4.5%
[1]; sodium azide 90 mM
  Change in absorbance, Containing Antibody (Composition C): 1.6 mABS/min
  Change in absorbance, Without antibody (Composition D): 28.6 mABS/min
  Relative sensitivity: 62.3%
  Percent residual enzyme activity: 5.6%
[1]; sodium azide 120 mM
  Change in absorbance, Containing Antibody (Composition C): 1.5 mABS/min
  Change in absorbance, Without antibody (Composition D): 31.0 mABS/min
  Relative sensitivity: 67.5%
  Percent residual enzyme activity: 4.8%
[1]; sodium azide 150 mM
  Change in absorbance, Containing Antibody (Composition C): 1.6 mABS/min
  Change in absorbance, Without antibody (Composition D): 35.8 mABS/min
  Relative sensitivity: 78.0%
  Percent residual enzyme activity: 4.5%
[1]; sodium azide 200 mM
  Change in absorbance, Containing Antibody (Composition C): 1.9 mABS/min
  Change in absorbance, Without antibody (Composition D): 41.1 mABS/min
  Relative sensitivity: 89.5%
  Percent residual enzyme activity: 4.6%
[1]; sodium azide 250 mM
  Change in absorbance, Containing Antibody (Composition C): 2.2 mABS/min
  Change in absorbance, Without antibody (Composition D): 44.5 mABS/min
  Relative sensitivity: 96.9%
  Percent residual enzyme activity: 4.9%
[1]; sodium azide 300 mM
  Change in absorbance, Containing Antibody (Composition C): 2.3 mABS/min
  Change in absorbance, Without antibody (Composition D): 45.9 mABS/min
  Relative sensitivity: 100.0%
  Percent residual enzyme activity: 5.0%
[1]; irrespective of sodium azide concentrations, FIG. 4 and FIG. 5
  percent inhibition of S-type amylase: around 95%
[2]; potassium thiocyanate 0 mM
  Change in absorbance, Containing Antibody (Composition A): 0.5 mABS/min
  Change in absorbance, Without antibody (Composition B): 4.9 mABS/min
  Relative sensitivity: 11.0%
  Percent residual enzyme activity: 10.2%
[2]; potassium thiocyanate 50 mM
  Change in absorbance, Containing Antibody (Composition A): 0.7 mABS/min
  Change in absorbance, Without antibody (Composition B): 14.8 mABS/min
  Relative sensitivity: 33.1%
  Percent residual enzyme activity: 4.7%
[2]; potassium thiocyanate 100 mM
  Change in absorbance, Containing Antibody (Composition A): 0.9 mABS/min
  Change in absorbance, Without antibody (Composition B): 21.9 mABS/min
  Relative sensitivity: 49.0%
  Percent residual enzyme activity: 4.1%
[2]; potassium thiocyanate 140 mM
  Change in absorbance, Containing Antibody (Composition A): 1.3 mABS/min
  Change in absorbance, Without antibody (Composition B): 26.6 mABS/min
  Relative sensitivity: 59.5%
  Percent residual enzyme activity: 4.9%
[2]; potassium thiocyanate 200 mM
  Change in absorbance, Containing Antibody (Composition A): 1.5 mABS/min
  Change in absorbance, Without antibody (Composition B): 31.4 mABS/min
  Relative sensitivity: 70.2%
  Percent residual enzyme activity: 4.8%
[2]; potassium thiocyanate 300 mM
  Change in absorbance, Containing Antibody (Composition A): 2.2 mABS/min
  Change in absorbance, Without antibody (Composition B): 39.7 mABS/min
  Relative sensitivity: 88.8%
  Percent residual enzyme activity: 5.5%
[2]; potassium thiocyanate 400 mM
  Change in absorbance, Containing Antibody (Composition A): 3.3 mABS/min
  Change in absorbance, Without antibody (Composition B): 43.2 mABS/min
  Relative sensitivity: 96.6%
  Percent residual enzyme activity: 7.6%
[2]; potassium thiocyanate 500 mM
  Change in absorbance, Containing Antibody (Composition A): 4.6 mABS/min
  Change in absorbance, Without antibody (Composition B): 45.8 mABS/min
  Relative sensitivity: 102.5%
  Percent residual enzyme activity: 10.0%
[2]; potassium thiocyanate 600 mM
  Change in absorbance, Containing Antibody (Composition A): 5.4 mABS/min
  Change in absorbance, Without antibody (Composition B): 47.3 mABS/min
  Relative sensitivity: 105.8%
  Percent residual enzyme activity: 11.4%
[2]; potassium thiocyanate 700 mM
  Change in absorbance, Containing Antibody (Composition A): 7.0 mABS/min
  Change in absorbance, Without antibody (Composition B): 47.1 mABS/min
  Relative sensitivity: 105.4%
  Percent residual enzyme activity: 14.9%
[2]; potassium thiocyanate 800 mM
  Change in absorbance, Containing Antibody (Composition A): 8.4 mABS/min
  Change in absorbance, Without antibody (Composition B): 45.8 mABS/min
  Relative sensitivity: 102.5%
  Percent residual enzyme activity: 18.3%
[2]; potassium thiocyanate 900 mM
  Change in absorbance, Containing Antibody (Composition A): 10.0 mABS/min
  Change in absorbance, Without antibody (Composition B): 44.7 mABS/min
  Relative sensitivity: 100.0%
  Percent residual enzyme activity: 22.4%
